Type in all cases: biochemical
One assay has as its target CDK4/CCND3 (Homo sapiens, UniProt P11802). The assay is described as follows: CDK4 homogeneous time-resolved fluorescence (HTRF) kinase assay. The conditions noted are these: CDK4/CCND. In outline: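 HTRF kinase assay, CDK4/CCND3 1.5 nM, ATP 1 mM, ULight-4E-BP1 peptide 50 nM, 23 °C, 60 min reaction after 20 min preincubation. Eu-anti-pThr37/46 antibody detection. 11-pt half-log curves from 10 μM → IC50.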
A general note: In TR-FRET formats the signal depends on donor and acceptor labels being close together.

The target in a further assay is CDK1/CCNB1 (Homo sapiens, UniProt P06493). The assay is described as follows: CDK1 homogeneous time-resolved fluorescence (HTRF) kinase assay. As to conditions: CDK1/CCNB. In outline:
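0.5 nM CDK1/CCNB1 was preincubated 20 min at 23 °C with compound in HEPES pH-unspecified buffer (MgCl2, EGTA, DTT, Tween 20), then reacted 60 min with 1 mM ATP and 50 nM ULight-4E-BP1 (Thr37/46) peptide. EDTA-stopped reactions were detected with 2 nM Eu-anti-phospho antibody; IC50 from 11-point half-log titrations.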

A further assay concerns the target CDK2/CCNE1 (Homo sapiens, UniProt P24941). The experiment in a line: CDK2 homogeneous time-resolved fluorescence (HTRF) kinase assay. The conditions noted are these: CDK2/CCNE. In outline: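 IC50 derived from 11-point, half-log dilutions (usually top 10 μM) of compound, 1% DMSO. Kinase (3 nM CDK2/CCNE1) was preincubated with compound 20 min, then phosphorylated 50 nM ULight-4E-BP1 peptide at 1 mM ATP for 60 min, 23 °C. Europium-antibody TR-FRET read after EDTA stop.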

The target in the next assay is CDK6/CCND1 (Homo sapiens, UniProt Q00534). The experiment in a line: CDK6 homogeneous time-resolved fluorescence (HTRF) kinase assay. The conditions noted are these: CDK6/CCND. In outline: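 Recombinant CDK6/CCND1 (1 nM final) was preincubated with compound for 20 min at 23 °C in HEPES buffer with MgCl2, EGTA, DTT and Tween 20. Kinase reaction then ran 60 min at 23 °C with 1 mM ATP and 50 nM ULight-4E-BP1 (Thr37/46) peptide, and was stopped with EDTA.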
CDK6/CCND1, sequence (Q00534 whole entry): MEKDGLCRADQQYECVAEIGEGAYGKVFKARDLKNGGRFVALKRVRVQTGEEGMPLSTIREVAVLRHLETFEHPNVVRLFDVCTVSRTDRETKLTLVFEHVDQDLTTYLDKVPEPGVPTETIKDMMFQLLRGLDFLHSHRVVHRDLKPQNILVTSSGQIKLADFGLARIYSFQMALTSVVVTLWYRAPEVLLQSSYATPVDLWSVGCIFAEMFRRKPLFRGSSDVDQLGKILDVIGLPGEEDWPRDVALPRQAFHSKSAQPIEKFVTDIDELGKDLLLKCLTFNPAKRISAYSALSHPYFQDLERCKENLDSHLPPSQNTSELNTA
CDK6/CCND1, sequence (P24385 whole entry partner): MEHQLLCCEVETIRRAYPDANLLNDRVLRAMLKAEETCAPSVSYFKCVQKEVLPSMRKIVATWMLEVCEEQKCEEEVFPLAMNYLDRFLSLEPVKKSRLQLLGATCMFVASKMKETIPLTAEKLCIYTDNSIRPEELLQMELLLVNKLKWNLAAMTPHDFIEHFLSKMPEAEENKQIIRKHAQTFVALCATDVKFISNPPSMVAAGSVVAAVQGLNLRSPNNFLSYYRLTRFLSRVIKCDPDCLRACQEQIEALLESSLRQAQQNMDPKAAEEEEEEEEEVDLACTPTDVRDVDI

Setting [1] is: x = IC50 >250 nM, read-out: CDK4/CCND IC50 (>250 nM column).
Setting [2] is: x = IC50 >250 nM, read-out: CDK1/CCNB IC50 (>250 nM column).
[3] abbreviates: x = IC50 <25 nM, read-out: CDK2/CCNE IC50 (<25 nM).
Setting [4] is: x = IC50 25-250 nM, read-out: CDK6/CCND IC50 (25-250 nM).
The mark [5] stands for this setting: x = IC50 25-250 nM, read-out: CDK4/CCND IC50 (25-250 nM).
Where [6] appears, read: x = IC50 >250 nM, read-out: CDK6/CCND IC50 (>250 nM column).
Setting [7] is: 25-250 nM, read-out: CDK4/CCND IC50, 25-250 nM.
[8] abbreviates: >250 nM, read-out: CDK1/CCNB IC50 >250 nM.
The mark [9] stands for this setting: <25 nM, read-out: CDK2/CCNE IC50, <25 nM.
[10] abbreviates: 25-250 nM, 1 mM ATP, read-out: CDK6/CCND IC50, 25-250 nM.
The mark [11] stands for this setting: >250 nM, read-out: CDK4/CCND IC50, >250 nM.
Setting [12] is: >250 nM, 1 mM ATP, read-out: CDK6/CCND IC50, >250 nM.

Where two headings read alike, the source gives them in different places.

CDK4/CCND3, sequence (P11802 whole entry): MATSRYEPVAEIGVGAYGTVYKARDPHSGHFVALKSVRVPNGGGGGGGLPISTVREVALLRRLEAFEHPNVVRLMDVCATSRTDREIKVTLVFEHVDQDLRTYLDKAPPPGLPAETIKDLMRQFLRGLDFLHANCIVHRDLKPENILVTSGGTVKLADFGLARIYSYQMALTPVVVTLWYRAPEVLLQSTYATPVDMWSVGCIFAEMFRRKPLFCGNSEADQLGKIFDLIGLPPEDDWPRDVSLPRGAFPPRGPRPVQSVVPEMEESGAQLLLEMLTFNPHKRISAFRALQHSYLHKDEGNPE
CDK4/CCND3, sequence (P30281 whole entry partner): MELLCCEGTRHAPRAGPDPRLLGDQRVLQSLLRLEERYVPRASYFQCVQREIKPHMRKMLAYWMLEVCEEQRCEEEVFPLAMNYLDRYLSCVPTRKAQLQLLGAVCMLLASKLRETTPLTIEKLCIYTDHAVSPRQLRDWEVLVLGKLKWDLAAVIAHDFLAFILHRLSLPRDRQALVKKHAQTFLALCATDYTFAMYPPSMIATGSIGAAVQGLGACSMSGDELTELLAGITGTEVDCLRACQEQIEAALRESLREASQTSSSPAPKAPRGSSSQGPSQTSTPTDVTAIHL
CDK1/CCNB1, sequence (P06493 whole entry): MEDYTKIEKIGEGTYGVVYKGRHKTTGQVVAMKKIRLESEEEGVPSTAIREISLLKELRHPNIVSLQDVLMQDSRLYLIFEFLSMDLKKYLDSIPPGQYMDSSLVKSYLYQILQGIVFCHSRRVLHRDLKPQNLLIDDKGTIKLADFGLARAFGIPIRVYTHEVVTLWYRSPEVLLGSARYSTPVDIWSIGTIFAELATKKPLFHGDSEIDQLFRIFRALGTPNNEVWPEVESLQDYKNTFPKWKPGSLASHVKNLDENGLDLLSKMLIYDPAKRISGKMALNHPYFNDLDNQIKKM
CDK1/CCNB1, sequence (P14635 whole entry partner): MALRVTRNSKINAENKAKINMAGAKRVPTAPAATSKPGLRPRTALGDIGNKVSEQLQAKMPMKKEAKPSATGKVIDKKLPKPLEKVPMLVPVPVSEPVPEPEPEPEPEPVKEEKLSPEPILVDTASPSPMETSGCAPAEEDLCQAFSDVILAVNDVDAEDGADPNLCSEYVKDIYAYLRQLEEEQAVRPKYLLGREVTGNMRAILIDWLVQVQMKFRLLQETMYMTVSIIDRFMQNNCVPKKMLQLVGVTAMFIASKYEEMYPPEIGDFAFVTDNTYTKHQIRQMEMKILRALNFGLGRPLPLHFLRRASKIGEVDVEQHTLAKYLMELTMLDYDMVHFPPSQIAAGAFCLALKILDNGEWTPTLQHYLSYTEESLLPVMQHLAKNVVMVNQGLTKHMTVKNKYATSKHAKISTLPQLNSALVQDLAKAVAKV

`CC(CCO)N1CCc2cc(-c3nccc4cnc(Nc5ccc(S(C)(=O)=O)cc5)cc34)ccc2C1` (racemic) [Ex 619, 3-(6-(7-((4-(methylsulfonyl)phenyl)amino)-2,6-naphthyridin-1-yl)-3,4-dihydroisoquinolin-2(1H)-yl)butan-1-ol]: the IC50 on CDK4/CCND3 (setting [1]) is > 250 nM; at CDK1/CCNB1 (setting [2]), > 250 nM; at CDK2/CCNE1 (setting [3]), < 25 nM; at CDK6/CCND1 (setting [4]), 25 to 250 nM.

Consider `CC(O)CN1CCc2cc(-c3nccc4cnc(Nc5ccc(S(C)(=O)=O)cc5)cc34)ccc2C1` (racemic) [Ex 628, 1-(6-(7-((4-(methylsulfonyl)phenyl)amino)-2,6-naphthyridin-1-yl)-3,4-dihydroisoquinolin-2(1H)-yl)propan-2-ol], for which the IC50 at CDK4/CCND3 (setting [5]) is 25 to 250 nM; on CDK1/CCNB1 (setting [2]) it was > 250 nM; on CDK2/CCNE1 (setting [3]), < 25 nM; at CDK6/CCND1 (setting [4]), 25 to 250 nM.

Regarding `Cn1cc(C2CCN(c3nccc4cnc(Nc5ccc(S(C)(=O)=O)cc5)cc34)C2)cn1` (racemic) [Ex 654, 5-(3-(1-methyl-1H-pyrazol-4-yl)pyrrolidin-1-yl)-N-(4-(methylsulfonyl)phenyl)-2,6-naphthyridin-3-amine], the IC50 on CDK4/CCND3 (setting [1]) is > 250 nM; at CDK1/CCNB1 (setting [2]) it was > 250 nM; at CDK2/CCNE1 (x = IC50 >250 nM, read-out: CDK2/CCNE IC50 (>250 nM column)), > 250 nM; at CDK6/CCND1 (setting [6]) it was > 250 nM.

For the molecule `Cc1c(-c2nccc3cnc(Nc4ccc(S(C)(=O)=O)cc4)cc23)ccc2c1cnn2CC(C)O` (racemic) [Ex 672, 1-(4-methyl-5-(7-((4-(methylsulfonyl)phenyl)amino)-2,6-naphthyridin-1-yl)-1H-indazol-1-yl)propan-2-ol], the IC50 is 25 to 250 nM on CDK4/CCND3 (setting [5]); 25 to 250 nM on CDK1/CCNB1 (x = IC50 25-250 nM, read-out: CDK1/CCNB IC50 (25-250 nM)); < 25 nM on CDK2/CCNE1 (setting [3]); 25 to 250 nM on CDK6/CCND1 (setting [4]).

`Cc1c(-c2nccc3cnc(Nc4ccc(S(C)(=O)=O)cc4)cc23)ccc2nn(CC(C)O)cc12` (racemic) [Ex 675, 1-(4-methyl-5-(7-((4-(methylsulfonyl)phenyl)amino)-2,6-naphthyridin-1-yl)-2H-indazol-2-yl)propan-2-ol]: the IC50 is > 250 nM at CDK4/CCND3 (setting [1]); > 250 nM at CDK1/CCNB1 (setting [2]); 25 to 250 nM at CDK2/CCNE1 (x = IC50 25-250 nM, read-out: CDK2/CCNE IC50 (25-250 nM)); > 250 nM at CDK6/CCND1 (setting [6]).

Consider `Cc1c(-c2nccc3cnc(Nc4ccc(S(=O)(=O)NC5CCCN(CCO)C5)cc4)cc23)ccc2c1cnn2CC(C)(C)O` (racemic) [Ex 760, 4-((5-(1-(2-hydroxy-2-methylpropyl)-4-methyl-1H-indazol-5-yl)-2,6-naphthyridin-3-yl)amino)-N-(1-(2-hydroxyethyl)piperidin-3-yl)benzenesulfonamide], for which the IC50 at CDK4/CCND3 (setting [7]) is 25 to 250 nM; on CDK1/CCNB1 (setting [8]), > 250 nM; at CDK2/CCNE1 (setting [9]), < 25 nM; at CDK6/CCND1 (setting [10]), 25 to 250 nM.

For `Cc1c(-c2nccc3cnc(Nc4ccc(S(=O)(=O)NC5CCCN(C)C5)cc4)cc23)ccc2c1cnn2CC(C)(C)O` (racemic) [Ex 761, 4-((5-(1-(2-hydroxy-2-methylpropyl)-4-methyl-1H-indazol-5-yl)-2,6-naphthyridin-3-yl)amino)-N-(1-methylpiperidin-3-yl)benzenesulfonamide], the IC50 is 25 to 250 nM at CDK4/CCND3 (setting [7]), > 250 nM at CDK1/CCNB1 (setting [8]), < 25 nM on CDK2/CCNE1 (setting [9]) and 25 to 250 nM on CDK6/CCND1 (setting [10]).

Take `Cc1c(-c2nccc3cnc(Nc4ccc(S(=O)(=O)NC5CCOC5)cc4)cc23)ccc2c1cnn2CC(C)(C)O` (racemic) [Ex 770, 4-((5-(1-(2-hydroxy-2-methylpropyl)-4-methyl-1H-indazol-5-yl)-2,6-naphthyridin-3-yl)amino)-N-(tetrahydrofuran-3-yl)benzenesulfonamide]: the IC50 at CDK4/CCND3 (setting [7]) was 25 to 250 nM; at CDK1/CCNB1 (setting [8]), > 250 nM; at CDK2/CCNE1 (setting [9]), < 25 nM; on CDK6/CCND1 (setting [10]) it was 25 to 250 nM.

For the molecule `Cc1c(-c2nccc3cnc(Nc4ccc(S(=O)(=O)NC5CCN(C)C5)cc4)cc23)ccc2c1cnn2CC(C)(C)O` (racemic) [Ex 771, 4-((5-(1-(2-hydroxy-2-methylpropyl)-4-methyl-1H-indazol-5-yl)-2,6-naphthyridin-3-yl)amino)-N-(1-methylpyrrolidin-3-yl)benzenesulfonamide], the IC50 on CDK4/CCND3 (setting [7]) was 25 to 250 nM; on CDK1/CCNB1 (setting [8]), > 250 nM; on CDK2/CCNE1 (setting [9]), < 25 nM; on CDK6/CCND1 (setting [10]) it was 25 to 250 nM.

In the case of `Cc1c(-c2nccc3cnc(Nc4ccc(S(=O)(=O)NC5CCNC5)cc4)cc23)ccc2c1cnn2CC(C)(C)O` (racemic) [Ex 791, 4-((5-(1-(2-hydroxy-2-methylpropyl)-4-methyl-1H-indazol-5-yl)-2,6-naphthyridin-3-yl)amino)-N-(pyrrolidin-3-yl)benzenesulfonamide], the IC50 on CDK4/CCND3 (<25 nM, read-out: CDK4/CCND IC50, column <25 nM) is < 25 nM; at CDK1/CCNB1 (25-250 nM, read-out: CDK1/CCNB IC50, 25-250 nM), 25 to 250 nM; on CDK2/CCNE1 (setting [9]), < 25 nM; on CDK6/CCND1 (setting [10]), 25 to 250 nM.

With `Cc1c(-c2nccc3cnc(Nc4ccc(S(=O)(=O)NC5CCCNC5)cc4)cc23)ccc2c1cnn2CC(C)(C)O` (racemic) [Ex 792, 4-((5-(1-(2-hydroxy-2-methylpropyl)-4-methyl-1H-indazol-5-yl)-2,6-naphthyridin-3-yl)amino)-N-(piperidin-3-yl)benzenesulfonamide], the IC50 is 25 to 250 nM at CDK4/CCND3 (setting [7]), > 250 nM at CDK1/CCNB1 (setting [8]), < 25 nM on CDK2/CCNE1 (setting [9]) and 25 to 250 nM at CDK6/CCND1 (setting [10]).

With `COc1ccc(C(=O)N2CCC(Nc3cc4c(-c5ccc6c(cnn6CC(C)(C)O)c5C)nccc4cn3)C2)cc1` (racemic) [Ex 884, (3-((5-(1-(2-hydroxy-2-methylpropyl)-4-methyl-1H-indazol-5-yl)-2,6-naphthyridin-3-yl)amino)pyrrolidin-1-yl)(4-methoxyphenyl)methanone], the IC50 on CDK4/CCND3 (setting [11]) was > 250 nM; at CDK1/CCNB1 (setting [8]), > 250 nM; at CDK2/CCNE1 (setting [9]), < 25 nM; at CDK6/CCND1 (setting [12]), > 250 nM.

On to `Cc1c(-c2nccc3cnc(NC4CCN(C(=O)c5ccccc5)C4)cc23)ccc2c1cnn2CC(C)(C)O` (racemic) [Ex 885, (3-((5-(1-(2-hydroxy-2-methylpropyl)-4-methyl-1H-indazol-5-yl)-2,6-naphthyridin-3-yl)amino)pyrrolidin-1-yl)(phenyl)methanone], for which the IC50 on CDK4/CCND3 (setting [11]) is > 250 nM; at CDK1/CCNB1 (setting [8]), > 250 nM; on CDK2/CCNE1 (setting [9]), < 25 nM; at CDK6/CCND1 (setting [12]) it was > 250 nM.

As for `Cc1c(-c2nccc3cnc(NC4CCN(C(=O)c5ccc(Cl)cc5)C4)cc23)ccc2c1cnn2CC(C)(C)O` (racemic) [Ex 903, (4-chlorophenyl)(3-((5-(1-(2-hydroxy-2-methylpropyl)-4-methyl-1H-indazol-5-yl)-2,6-naphthyridin-3-yl)amino)pyrrolidin-1-yl)methanone], the IC50 on CDK4/CCND3 (setting [11]) was > 250 nM; at CDK1/CCNB1 (setting [8]) it was > 250 nM; at CDK2/CCNE1 (setting [9]), < 25 nM; at CDK6/CCND1 (setting [12]), > 250 nM.

Consider `Cc1c(-c2nccc3cnc(NC4CCN(C(=O)c5cccnc5)C4)cc23)ccc2c1cnn2CC(C)(C)O` (racemic) [Ex 904, (3-((5-(1-(2-hydroxy-2-methylpropyl)-4-methyl-1H-indazol-5-yl)-2,6-naphthyridin-3-yl)amino)pyrrolidin-1-yl)(pyridin-3-yl)methanone], for which the IC50 at CDK4/CCND3 (setting [11]) was > 250 nM; on CDK1/CCNB1 (setting [8]), > 250 nM; on CDK2/CCNE1 (25-250 nM, read-out: CDK2/CCNE IC50, 25-250 nM) it was 25 to 250 nM; on CDK6/CCND1 (setting [12]) it was > 250 nM.

For the origin of these results see patent publication US20260325533A1, “CDK INHIBITOR COMPOUNDS” (ALEKSIA THERAPEUTICS, INC., priority 2023, published 2026).
